This test deals with T1, IC-GPCR2 (Homo sapiens, UniProt Q8TDV5, S309L).
T1 construct: expressed in transfected cells
T1 sequence (Q8TDV5 1-335 S309L): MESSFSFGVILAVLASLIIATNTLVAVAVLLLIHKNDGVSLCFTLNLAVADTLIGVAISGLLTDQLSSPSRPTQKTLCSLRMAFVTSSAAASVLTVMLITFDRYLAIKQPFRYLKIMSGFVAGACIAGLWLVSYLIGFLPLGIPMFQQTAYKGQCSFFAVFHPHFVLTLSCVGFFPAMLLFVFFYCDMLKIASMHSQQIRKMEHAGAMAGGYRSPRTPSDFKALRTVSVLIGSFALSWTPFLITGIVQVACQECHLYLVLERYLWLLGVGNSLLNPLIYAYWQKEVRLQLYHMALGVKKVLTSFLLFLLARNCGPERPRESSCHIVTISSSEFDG
In words: Stimulation of cAMP in CHO cells stably expressing IC-GPCR2 (HTRF cAMP assay). The class given is cell-based. Particulars: 0.5 h, 30 minutes, IC-GPCR2 stably expressing CHO cells, read-out: Activity at 10 uM (% change in FRET signal from DMSO control). The method in brief: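 CHO cells stably expressing IC-GPCR2, plated at 17500 cells/well, treated next day for 30 min in Ham's F12 with compounds at 6–8 concentrations from 0.00003 to 10 μM; parental CHO cells also screened. Intracellular cAMP read by HTRF competitive immunoassay (665/620 nm ratio). Activity given as % FRET change from DMSO control.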
(In general: In TR-FRET formats the signal depends on donor and acceptor labels being close together.)
With `c1cc(-n2cnnn2)ccc1OCc1csc(C2CCN(c3nc(C4CC4)no3)CC2)n1` [Example 97, 1-(3-Cyclopropyl-[1,2,4]oxadiazol-5-yl)-4-[4-(4-tetrazol-1-yl-phenoxymethyl)-thiazol-2-yl]-piperidine], the activation at 10 µM is 52%.

Consider `FC(F)(F)c1noc(N2CCC(c3nc(COc4ccc(-n5cnnn5)cc4)cs3)CC2)n1` [Example 98, 4-[4-(4-Tetrazol-1-yl-phenoxymethyl)-thiazol-2-yl]-1-(3-trifluoromethyl-[1,2,4]oxadiazol-5-yl)-piperidine], for which the activation at 10 µM amounted to 78%.

In the case of `NC(=O)N1CCC(c2nc(COc3ccc(-n4cnnn4)cc3)cs2)CC1` [Example 99, 4-[4-(4-Tetrazol-1-yl-phenoxymethyl)-thiazol-2-yl]-piperidine-1-carboxylic acid amide], the activation at 10 µM amounted to 67%.

On to `CC(C)(C)OC(=O)N1CC(c2nc(COc3ccc(-n4cnnn4)cc3)cs2)C1` [Example 101, 3-[4-(4-tetrazol-1-yl-phenoxymethyl)-thiazol-2-yl]-azetidine-1-carboxylic acid tert-butyl ester], for which the activation at 10 µM was determined as 44%.

Consider `CC(C)(C)OC(=O)N1CCC(c2nc(COc3ccc(-n4cnnn4)cc3)cs2)C1` (stereo not shown) [Example 102, 3-[4-(4-Tetrazol-1-yl-phenoxymethyl)-thiazol-2-yl]-pyrrolidine-1-carboxylic acid tert-butyl ester], for which the activation at 10 µM amounted to 49%.

For `CCc1cnc(N2CCC(c3nc(COc4ccc(-n5cnnn5)cc4)cs3)C2)nc1` (stereo not shown) [Example 103, 5-Ethyl-2-{3-[4-(4-tetrazol-1-yl-phenoxymethyl)-thiazol-2-yl]-pyrrolidin-1-yl}-pyrimidine], the activation at 10 µM came to 79%.

For the compound `CC(C)(C)OC(=O)N1CCCC(c2nc(COc3ccc(-n4cnnn4)cc3)cs2)C1` (stereo not shown) [Example 104, 3-[4-(4-Tetrazol-1-yl-phenoxymethyl)-thiazol-2-yl]-piperidine-1-carboxylic acid tert-butyl ester], the activation at 10 µM worked out at 76%.

As for `CCc1cnc(N2CCCC(c3nc(COc4ccc(-n5cnnn5)cc4)cs3)C2)nc1` (stereo not shown) [Example 105, 5-Ethyl-2-{3-[4-(4-tetrazol-1-yl-phenoxymethyl)-thiazol-2-yl]-piperidin-1-yl}-pyrimidine], the activation at 10 µM was 52%.

In the case of `CC(C)(C)OC(=O)N1CCC(c2nc(COCc3ccc(S(C)(=O)=O)cc3)cs2)CC1` [Example 106, 4-[4-(4-Methanesulfonyl-benzyloxymethyl)-thiazol-2-yl]-piperidine-1-carboxylic acid tert-butyl ester], the activation at 10 µM came out at 71%.

With `Nc1cnc(N2CCC(c3nc(COc4ccc(-n5cnnn5)cc4)cs3)CC2)nc1` [Example 107, 2-{4-[4-(4-Tetrazol-1-yl-phenoxymethyl)-thiazol-2-yl]-piperidin-1-yl}-pyrimidin-5-ylamine], the activation at 10 µM was 53%.

In the case of `CC(C)(C)OC(=O)N1CCC(c2nc(C(=O)Nc3ccc(-n4cnnn4)cc3)cs2)CC1` [Example 109, 4-[4-(4-Tetrazol-1-yl-phenylcarbamoyl)-thiazol-2-yl]-piperidine-1-carboxylic acid tert-butyl ester], the activation at 10 µM is 38%.

Consider `CC(C)(C)OC(=O)N1CCC(c2nc(COc3ccc(S(=O)(=O)C(F)(F)F)cc3)cs2)CC1` [Example 110, 4-[4-(4-Trifluoromethanesulfonyl-phenoxymethyl)-thiazol-2-yl]-piperidine-1-carboxylic acid tert-butyl ester], for which the activation at 10 µM stood at 51%.

On to `CC(C)(C)OC(=O)N1CCC(c2nc(COc3ccc([S+]([O-])C(F)(F)F)cc3)cs2)CC1` (stereo not shown) [Example 111, 4-[4-(4-Trifluoromethanesulfinyl-phenoxymethyl)-thiazol-2-yl]-piperidine-1-carboxylic acid tert-butyl ester], for which the activation at 10 µM was 68%.

Regarding `CC(C)(C)OC(=O)N1CCC(c2nc(COc3c(F)cc(-n4cnnn4)cc3F)cs2)CC1` [Example 112, 4-[4-(2,6-Difluoro-4-tetrazol-1-yl-phenoxymethyl)-thiazol-2-yl]-piperidine-1-carboxylic acid tert-butyl ester], the activation at 10 µM is 57%.

`CC(C)(C)OC(=O)N1CCC(c2nc(COc3ccc(-n4cccc4)cc3)cs2)CC1` [Example 113, 4-[4-(4-Pyrrol-1-yl-phenoxymethyl)-thiazol-2-yl]-piperidine-1-carboxylic acid tert-butyl ester]: the activation at 10 µM is 60%.

Regarding `CC(C)(C)OC(=O)N1CCC(c2nc(CNc3ccc(-n4cnnn4)cc3)cs2)CC1` [Example 114, 4-{4-[(4-Tetrazol-1-yl-phenylamino)-methyl]-thiazol-2-yl}-piperidine-1-carboxylic acid tert-butyl ester], the activation at 10 µM was 68%.

For `CCc1cnc(N2CCC(c3nc(COc4ccc(-n5cnnn5)c(Cl)c4)cs3)CC2)nc1` [Example 115, 2-{4-[4-(3-Chloro-4-tetrazol-1-yl-phenoxymethyl)-thiazol-2-yl]-piperidin-1-yl}-5-ethyl-pyrimidine], the activation at 10 µM turned out to be 67%.

As to `CCc1cnc(N2CCC(c3nc(COc4ccc(NC=O)cc4)cs3)CC2)nc1` [Example 116, N-(4-{2-[1-(5-Ethyl-pyrimidin-2-yl)-piperidin-4-yl]-thiazol-4-ylmethoxy}-phenyl)-formamide], the activation at 10 µM came out at 74%.

Take `CCc1cnc(N2CCC(c3nc(COc4ccc(NS(C)(=O)=O)cc4)cs3)CC2)nc1` [Example 117, N-(4-{2-[1-(5-Ethyl-pyrimidin-2-yl)-piperidin-4-yl]-thiazol-4-ylmethoxy}-phenyl)-methanesulfonamide]: the activation at 10 µM was determined as 65%.

Turning to `Cc1cc(-n2cnnn2)ccc1OCc1csc(C2CCN(C(=O)OC(C)(C)C)CC2)n1` [Example 118, 4-[4-(2-Methyl-4-tetrazol-1-yl-phenoxymethyl)-thiazol-2-yl]-piperidine-1-carboxylic acid tert-butyl ester], the activation at 10 µM is 64%.

Consider `CCc1cnc(N2CCC(c3nc(COc4ccc(-n5cnnn5)cc4C(F)(F)F)cs3)CC2)nc1` [Example 119, 5-Ethyl-2-{4-[4-(4-tetrazol-1-yl-2-trifluoromethyl-phenoxymethyl)-thiazol-2-yl]-piperidin-1-yl}-pyrimidine], for which the activation at 10 µM was found to be 53%.

Take `CCc1cnc(N2CCC(c3nc(COc4ccc(-n5cnnn5)cc4Cl)cs3)CC2)nc1` [Example 120, 2-{4-[4-(2-Chloro-4-tetrazol-1-yl-phenoxymethyl)-thiazol-2-yl]-piperidin-1-yl}-5-ethyl-pyrimidine]: the activation at 10 µM is 73%.

For `CC(C)(C)OC(=O)N1CCC(c2nc(COc3ccc(-n4cnnn4)cc3)co2)CC1` [Example 121, 4-[4-(4-Tetrazol-1-yl-phenoxymethyl)-oxazol-2-yl]-piperidine-1-carboxylic acid tert-butyl ester], the activation at 10 µM amounted to 75%.

As to `CC(C)(C)OC(=O)N1CCC(c2nc(COc3ccc(-n4cnnn4)cc3F)co2)CC1` [Example 122, 4-[4-(2-Fluoro-4-tetrazol-1-yl-phenoxymethyl)-oxazol-2-yl]-piperidine-1-carboxylic acid tert-butyl ester], the activation at 10 µM was determined as 76%.

`CCc1cnc(N2CCC(c3nc(COc4ccc(S(C)(=O)=O)cc4)co3)CC2)nc1` [Example 123, 5-Ethyl-2-{4-[4-(4-methanesulfonyl-phenoxymethyl)-oxazol-2-yl]-piperidin-1-yl}-pyrimidine]: the activation at 10 µM stood at 72%.

Turning to `CCC(=O)c1cc(F)c(OCc2csc(C3CCN(C(=O)OC(C)(C)C)CC3)n2)c(F)c1` [Example 124, 4-[4-(2,6-Difluoro-4-propionyl-phenoxymethyl)-thiazol-2-yl]-piperidine-1-carboxylic acid tert-butyl ester], the activation at 10 µM turned out to be 80%.

In the case of `CC(=O)c1ccc(OCc2csc(C3CCN(C(=O)OC(C)(C)C)CC3)n2)c(F)c1` [Example 125, 4-[4-(4-Acetyl-2-fluoro-phenoxymethyl)-thiazol-2-yl]-piperidine-1-carboxylic acid tert-butyl ester], the activation at 10 µM was determined as 78%.

For the compound `CC(C)(C)OC(=O)N1CCC(c2nc(COc3ccc(C#N)cc3F)cs2)CC1` [Example 126, 4-[4-(4-Cyano-2-fluoro-phenoxymethyl)-thiazol-2-yl]-piperidine-1-carboxylic acid tert-butyl ester], the activation at 10 µM is 87%.

In the case of `CC(C)(C)OC(=O)N1CCC(c2nc(COc3ccc(-n4ccnn4)cc3)cs2)CC1` [Example 128, 4-[4-(4-[1,2,3]Triazol-1-yl-phenoxymethyl)-thiazol-2-yl]-piperidine-1-carboxylic acid tert-butyl ester], the activation at 10 µM came to 57%.

With `CCOC(=O)c1ccc(OCc2csc(C3CCN(C(=O)OC(C)(C)C)CC3)n2)cc1` [Example 129, 4-[4-(4-Ethoxycarbonyl-phenoxymethyl)-thiazol-2-yl]-piperidine-1-carboxylic acid tert-butyl ester], the activation at 10 µM came out at 43%.

In the case of `CC(C)(C)OC(=O)Nc1ccc(OCc2csc(C3CCN(C(=O)OC(C)(C)C)CC3)n2)cc1` [Example 130, 4-[4-(4-tert-Butoxycarbonylamino-phenoxymethyl)-thiazol-2-yl]-piperidine-1-carboxylic acid tert-butyl ester], the activation at 10 µM is 53%.

(Values after patent publication US9925189B2, “Heterocyclic receptor agonists for the treatment of diabetes and metabolic disorders” (CymaBay Therapeutics, Inc., priority 2006, dated 2018).)
